Two compounds from patent publication US9211485B2, “Method for producing crystalline active ingredient particles” (Jesalis Pharma GmbH, priority 2010, dated 2015) can be followed below.

The structures appear in SMILES notation.

What all share (assay type): physicochemical
Data set [1] in a line: Particle size distribution by laser diffraction, wet measurement (Malvern Mastersizer E). The settings on record: for d50 / d90 / d10: dried product, laser diffraction wet measurement; for d50: average particle size; for d10: vol.-%; for span: span=(d90−d10)/d50. The protocol:
The particle size and the particle size distribution (grain-size distribution) are determined with the help of a customary laser diffraction in a wet measurement which delivers a distribution curve of the particle sizes (Malvern System, Mastersizer E, wet measurement in the cuvette). dx means that x volume percent (vol.-%) of the particles have a diameter which is smaller than the given value. With a d50 value of 1 μm 50 vol.-% of the particles thus have a diameter of less than 1 μm (micrometer). The d50 value is a measure of the average (volume average) particle diameter and is therefore also called average particle diameter. With a d10 of 15 μm and a d90 of 50 μm 10 vol.-% of the particles have a diameter of less than 15 μm and 90 vol.-% of the particles have a diameter of less than 50 μm.
Sample preparation for wet measurement of the particle size and particle size distribution: 12.5 mg sample is dispersed in 25 ml aqueous surfactant solution (0.1% Tween 80 in water, saturated with active ingredient and filtered over a 0.2 μm filter) by means of ultrasound sonotrode (Hielscher, d=7 mm, 30% output) for 4 min. The thus-obtained suspension is added dropwise, accompanied by stirring, to the measuring vessel which contains filtered surfactant solution, until the obscuration (clouding) reaches 10% and the particle size distribution is determined by the above-described laser diffraction. An average value is determined from five measurements.
An advantage of the method according to embodiments of the invention is the generation of a very narrow particle size distribution. Additionally, largely agglomerate-free particles are obtained. This is achieved by the synchronous counterrotation of destructive grinding and ultrasound processes on the one hand and constructive crystal growth on the other hand. In the region of coarse grain sizes and agglomerates, above all the disintegration effect (grinding process and ultrasound) acts primarily in the direction of a reduction, and in the fine-grain region the crystal growth acts in the direction of an increase in the particle size. Thus, very narrow particle size distributions are achieved. The width of a particle size distribution (span) is defined as follows: span=(d90−d10)/d50.

The nature of data set [2]: Agglomeration factor: d90 (Ultra Turrax stirrer) / d90 (ultrasound sonotrode). The settings on record: d90(agglomerated particles)/d90(non-agglomerated particles). The source says: The degree of agglomeration of the crystallized active ingredient particles is described by the agglomeration factor (AGF). This is defined by the quotient of the diameter of the agglomerated particles and of the diameter of the non-agglomerated particles. This method is most informative for agglomeration when comparing the d90 values. The agglomeration factor within the meaning of the present invention is therefore defined as follows: Agglomeration factor=d90(agglomerated particles)/d90(non-agglomerated particles)
These two d90 values are determined by different energy input into the sample to be tested.
With a high input of energy, existing agglomerates decompose and the following particle size measurement delivers the d90 of the non-agglomerated particles. […]
With a low energy input on the other hand agglomerates are largely spared and the following particle size measurement delivers the d90(agglomerated particles). […] The thus-obtained suspension is added dropwise accompanied by stirring to the measuring vessel which contains filtered surfactant solution, until the obscuration reaches 10% and the particle size distribution is determined by the above-described laser diffraction. An average value is determined from five measurements. […]

A short description of data set [3]: Crystallinity by X-ray powder diffractometry (XRPD) relative to a reference material. The following applies: relative to reference sample. The protocol:
The crystallinity is determined by means of X-ray powder diffractometry (XRPD) (apparatus: Siemens D8, fixed sample position). After background correction the integral intensities in the X-ray diffractogram are compared with those of a reference material. This reference material can for example be a conventional precipitation product or a product according to a different production method with known crystallinity and granulation. Thus the crystallinity is a relative value which characterizes the degree of order compared with a reference sample. The relationship of the integral reflex intensities of particle sample and reference sample is therefore the quantitative expression of its difference in crystallinity.

In data set [1], `CC(=O)[C@H]1CC[C@H]2[C@@H]3CCC4=CC(=O)CC[C@]4(C)[C@H]3CC[C@]12C` [Example 1, progesterone] displayed a d50 of 34 μm, a d90 of 64 μm, a d10 of 12 μm and a span of 1.5. Further, the “AGF (agglomeration factor)” value in data set [2] was found to be 1.3. For the same compound, the crystallinity in data set [3] turned out to be 100%.
In data set [1], `CC(=O)[C@H]1CC[C@H]2[C@@H]3CCC4=CC(=O)CC[C@]4(C)[C@H]3CC[C@]12C` [Example 2, progesterone] returned a d50 of 26 μm, a d90 of 45 μm, a d10 of 10 μm and a span of 1.3. Moreover, in data set [2], the “AGF (agglomeration factor)” value turned out to be 1.1. Further, the crystallinity in data set [3] is given as 100%.
